For 15 compounds, inhibition, inhibition of growth and Activity results are on record in ChEMBL document CHEMBL3763061, “Inhibition of cancer cell invasion by new ((3,4-dihydroxy benzylidene)hydrazinyl)pyridine-3-sulfonamide analogs” (2016).

Test [1] deals with MDA-MB-231. Kind of test: Antiinvasive activity against human MDA-MB-231 assessed as inhibition of tumor invasion cells by transwell invasion assay. It counts as functional, cell-based.
Test [2] deals with A-375. Kind of test: Cytotoxicity against human A375 cells assessed as growth inhibition at 10 uM after 24 hrs by MTT assay relative to control. It counts as functional. As to conditions: A-375, 24 h, read-out: GI. In general terms: Tetrazolium assays rely on reduction of a dye to a coloured formazan, in cell work by metabolically active cells.
The subject of test [3] is A-375. Kind of test: Inhibition of alpha-smooth muscle actin expression in human A375 cells. The class given is functional, cell-based.
The test system of test [4] is A-375. Kind of test: Inhibition of collagen expression in human A375 cells. The class given is functional, cell-based.
The subject of test [5] is MDA-MB-231. Kind of test: Inhibition of alpha-smooth muscle actin expression in human MDA-MB-231 cells. The class given is functional, cell-based.
For test [6], the system named is MDA-MB-231. Kind of test: Cytotoxicity against human MDA-MB-231 cells assessed as growth inhibition at 10 uM after 24 hrs by MTT assay relative to control. The class given is functional. To be noted: MDA-MB-231, 24 h, read-out: GI.
The subject of test [7] is MDA-MB-231. Kind of test: Antimigratory activity against human MDA-MB-231 cells assessed as density of migrated cells in scratched areas by wound scratch assay. The class given is functional, cell-based.
For test [8], the system named is A-375. Kind of test: Antiinvasive activity against human A375 cells assessed as inhibition of tumor invasion by transwell invasion assay. The class given is functional, cell-based.
Test [9] has as its system A-375. Kind of test: Inhibition of vimentin expression in human A375 cells. The class given is functional, cell-based.
Test [10] concerns MDA-MB-231. Kind of test: Inhibition of fibronectin expression in human MDA-MB-231 cells. The class given is functional, cell-based.
Test [11] has as its system A-375. Kind of test: Inhibition of fibronectin expression in human A375 cells. The class given is functional, cell-based.
For test [12], the system named is MDA-MB-231. Kind of test: Inhibition of N-cadherin expression in human MDA-MB-231 cells. It counts as functional, cell-based.
Test [13] concerns MDA-MB-231. Kind of test: Inhibition of vimentin expression in human MDA-MB-231 cells. It counts as functional, cell-based.
Test [14] has as its system A-375. Kind of test: Inhibition of N-cadherin expression in human A375 cells. It counts as functional, cell-based.
Test [15] has as its system A-375. Kind of test: Antimigratory activity against human A375 cells assessed as inhibition of cell migration by wound scratch assay. It counts as functional, cell-based.
Test [16] relates to MDA-MB-231. Kind of test: Inhibition of collagen expression in human MDA-MB-231 cells. It counts as functional, cell-based.
Test [17] has as its system MDA-MB-231. Kind of test: Inhibition of Rab27a expression in human MDA-MB-231 cells. The class given is functional, cell-based.
Test [18] deals with A-375. Kind of test: Inhibition of Rab27a expression in human A375 cells. It counts as functional, cell-based.

Each structure is given as a SMILES string. Calls of active or inactive are those of the source. The rule behind the calls is not given here.

Consider `O=S(=O)(c1ccc(N/N=C/c2ccc(O)c(O)c2)nc1)N1CCc2ccccc2C1`, for which the inhibition entry in the test with MDA-MB-231 [1], with A-375 [3], in the test on A-375 [4], in the test with MDA-MB-231 [5], in the test on A-375 [8] and in the test with MDA-MB-231 [10] was “inactive” each time. In addition, the inhibition entry with A-375 [11], with MDA-MB-231 [12], in the test with A-375 [14], in the test on A-375 [15] and in the test on MDA-MB-231 [16] was “inactive” in each case. For the same compound, the inhibition of growth at 10 µM was 8.41% in the test on A-375 [2] and 14.9% with MDA-MB-231 [6]. Besides, the result in the test on MDA-MB-231 [7] was inactive. The inhibition entry in the test with A-375 [9] and with MDA-MB-231 [13] was “Active” in each case.
Consider `O=S(=O)(Nc1ccc(O)cc1)c1ccc(N/N=C/c2ccc(O)c(O)c2)nc1`, for which the figures for the inhibition of growth at 10 µM in the test with A-375 [2] and with MDA-MB-231 [6] were -15.1% and -1.92%, respectively.
As for `O=S(=O)(Nc1cccc(Cl)c1)c1ccc(N/N=C/c2ccc(O)c(O)c2)nc1`, the inhibition result in the test on MDA-MB-231 [1], in the test with MDA-MB-231 [17], with A-375 [18], in the test with A-375 [8], in the test on A-375 [9] and in the test with MDA-MB-231 [12] was “Active” in each case. Moreover, the inhibition entry with MDA-MB-231 [13], in the test on A-375 [14] and with A-375 [15] was “Active” each time. The figures for the inhibition of growth at 10 µM in the test on A-375 [2] and with MDA-MB-231 [6] were 71.7% and 26.3%, respectively. Further, the inhibition entry in the test on A-375 [3], in the test with A-375 [4], in the test with MDA-MB-231 [5], in the test with MDA-MB-231 [10], in the test on A-375 [11] and in the test on MDA-MB-231 [16] was “inactive” throughout. The result with MDA-MB-231 [7] was Active.
As to `O=S(=O)(c1ccc(N/N=C/c2ccc(O)c(O)c2)nc1)N1CCCCC1`, the values for the inhibition of growth at 10 µM in the test with A-375 [2] and in the test on MDA-MB-231 [6] were 5.06% and -15.6%, respectively. In the test on MDA-MB-231 [7], the outcome was Active.
For `CN(Cc1ccccc1)S(=O)(=O)c1ccc(N/N=C/c2ccc(O)c(O)c2)nc1`, the inhibition entry with MDA-MB-231 [1], with A-375 [3], in the test on A-375 [4], in the test on MDA-MB-231 [17], in the test on MDA-MB-231 [5] and with A-375 [18] was “Active” in each case. In addition, the inhibition entry in the test on A-375 [8], in the test on A-375 [9], in the test on MDA-MB-231 [10], in the test with A-375 [11], with MDA-MB-231 [12] and with MDA-MB-231 [13] was “Active” throughout. For the same compound, the inhibition entry in the test on A-375 [14], in the test with A-375 [15] and with MDA-MB-231 [16] was “Active” in each case. Also, the inhibition of growth at 10 µM in the test with A-375 [2] was 49.4%; in the test with MDA-MB-231 [6], 24.6%. The outcome in the test with MDA-MB-231 [7] was Active.
On to `O=S(=O)(NCc1cccc2ccccc12)c1ccc(N/N=C/c2ccc(O)c(O)c2)nc1`, for which the results for the inhibition of growth at 10 µM in the test with A-375 [2] and with MDA-MB-231 [6] were -13.8% and -21%, respectively.
The like results for `O=S(=O)(c1ccc(N/N=C/c2ccc(O)c(O)c2)nc1)N1CCOCC1` were, in that order, -9.25% and -5.98%.
The like results for `CN(C)S(=O)(=O)c1ccc(N/N=C/c2ccc(O)c(O)c2)nc1` were, in that order, 1.44% and 4.81%.
The like results for `C[C@@H](NS(=O)(=O)c1ccc(N/N=C/c2ccc(O)c(O)c2)nc1)C1CCCCC1` were, in that order, 3.45% and -25.8%.
Take `O=S(=O)(c1ccc(N/N=C/c2ccc(O)c(O)c2)nc1)N1CCC(O)CC1`: the figures for the inhibition of growth at 10 µM with A-375 [2] and in the test on MDA-MB-231 [6] were -14.1% and -15.8%, respectively.
The like results for `O=S(=O)(Nc1cc(Cl)ccc1O)c1ccc(N/N=C/c2ccc(O)c(O)c2)nc1` were, in that order, -3.03% and 7.47%.
The like results for `COCCNS(=O)(=O)c1ccc(N/N=C/c2ccc(O)c(O)c2)nc1` were, in that order, -11.4% and -9.95%.
The like results for `CCOC(=O)CN(C)S(=O)(=O)c1ccc(N/N=C/c2ccc(O)c(O)c2)nc1` were, in that order, -13.7% and 0.97%.
Regarding `O=S(=O)(c1ccc(N/N=C/c2ccc(O)c(O)c2)nc1)N1CCCC1`, the values for the inhibition of growth at 10 µM with A-375 [2] and in the test on MDA-MB-231 [6] were -2.01% and -13.6%, respectively. The result with MDA-MB-231 [7] was Active.
With `CN1CCN(S(=O)(=O)c2ccc(N/N=C/c3ccc(O)c(O)c3)nc2)CC1`, the inhibition of growth at 10 µM with A-375 [2] worked out at 1.29%; in the test with MDA-MB-231 [6] it was 2.1%.
